From US7989451B2, “Tricyclic 1,2,4-triazine oxides and compositions for therapeutic use in cancer treatments” (Auckland Uniservices Limited, priority 2005, dated 2011)
Read-outs that look alike come from different tables or passages of the source.

What was measured:
[1] = system: human cervical carcinoma SiHa; assay: Proliferation assay (IC50) under aerobic and hypoxic conditions, SiHa; assay type: cell-based; conditions: for IC50: Homo sapiens, 4 h drug exposure, sulforhodamine B; for HCR: hypoxic cytotoxicity ratio = IC50 aerobic/IC50 hypoxic
Protocol: (§1) Compounds representative of the invention were evaluated under both aerobic and hypoxic conditions in a proliferation assay (IC50), using two cell lines: human colon carcinoma HT29, and human cervical carcinoma SiHa (Table 1).
(§2) Drug exposures were performed in 96-well plates (Nunc) either using a 37 DC humidified incubator (20% O2, 5% CO2) or in the incubator compartment (37° C.) of an anaerobic chamber (Shell Lab) where palladium catalyst scrubbed gas (90% N2, 5% H2, 5% CO2) ensures severe anoxia (<0.001% O2). For each experiment, compounds were simultaneously tested under both oxic and hypoxic conditions and included TPZ as an internal control. An 8-methyl-5-nitroquinoline derivative, SN 24349, known to require very low oxygen concentrations for bioactivation (Siim et al., Br. J. Cancer 1994, 70, 596-603) was used to confirm that strict hypoxia was present during the experiment. […] Cell cultures were grown in αMEM (Gibco) containing 5% heat inactivated FCS and maintained in exponential growth phase. For each individual experiment an appropriate number of cells were seeded (HT29=1100; SiHa=1500) into wells in αMEM+10% FCS+10 mM added glucose+100 μM 2′-deoxycytidine (2′dCyd), and allowed to attach for 2-3 h. High glucose (final concentration 17 mM) and the presence of 2′-dCyd minimize hypoxia-induced cell cycle arrest. Cultures were then exposed to drugs, using 3-fold serial dilutions in duplicate, for a further 4 h. Subsequently cells were washed free of compound using complete media (without glucose/2′-dCyd) and allowed to grow for 5 (oxic) or 6 (anoxic) days. Plates were stained with sulforhodamine B as described previously (Wilson et al., J. Med. Chem. 1989, 32, 31-38) and IC50 values determined.
(§3) HCR=Hypoxic cytotoxicity ratio is defined as the ratio of IC50 values under aerobic and hypoxic conditions (IC50 aerobic/IC50 hypoxic).

[2] = system: human colon carcinoma HT29; assay: Proliferation assay (IC50) under aerobic and hypoxic conditions, HT29; assay type: cell-based; conditions: for IC50: Homo sapiens, 4 h drug exposure, sulforhodamine B; for HCR: hypoxic cytotoxicity ratio = IC50 aerobic/IC50 hypoxic
Protocol: as §1, §2, §3

[3] = hypoxic (anaerobic chamber, <0.001% O2), then 6 days growth, read-out: IC50 (μM) hypoxic
[4] = oxic (20% O2), then 5 days growth, read-out: IC50 (μM) oxic
[5] = HT-29, hypoxic (anaerobic chamber, <0.001% O2), then 6 days growth, read-out: IC50 (μM) hypoxic
[6] = HT-29, oxic (20% O2), then 5 days growth, read-out: IC50 (μM) oxic

Compound	IC50 [1, 3]	IC50 [1, 4]	HCR [1]	IC50 [2, 5]	IC50 [2, 6]	HCR [2]	melting point
COC1CCN(CCCNc2n[n+]([O-])c3cc4c(cc3[n+]2[O-])CCC4)CC1 [Compound 59, N-[3-(4-Methoxy-1-piperidinyl)propyl]-7,8-dihydro-6H-indeno[5,6-e][1,2,4]triazin-3-amine 1,4-Dioxide]	2 ± 0.2 µM	114 ± 2 µM	57 ± 1	7.1 ± 0.8 µM	494 ± 36 µM	70 ± 5	128 to 130 °C
[O-][n+]1nc(NCCO)[n+]([O-])c2cc3c(cc21)CCC3 [Compound 25, 2-[(1,4-Dioxido-7,8-dihydro-6H-indeno[5,6-e][1,2,4]triazin-3-yl)amino]ethanol]	17.7 ± 0.6 µM	751 µM	42	47 ± 4 µM	1520 µM	32	187 to 188 °C
[O-][n+]1cn[n+]([O-])c2cc3c(cc21)CCC3 [Compound 65, 7,8-Dihydro-6H-indeno[5,6-e][1,2,4]triazine 1,4-Dioxide]	1 ± 0.5 µM	80 ± 7 µM	155 ± 117	2.4 ± 0.4 µM	401 ± 236 µM	226 ± 153	179 to 181 °C
CC1Cc2cc3c(cc2C1)[n+]([O-])c(CCCO)n[n+]3[O-] (stereo not shown) [Compound 105, 3-(7-Methyl-1,4-dioxido-7,8-dihydro-6H-indeno[5,6-e][1,2,4]triazin-3-yl)-1-propanol]	8 ± 0.4 µM	831 ± 30 µM	104 ± 4	13 ± 1.3 µM	1040 ± 28 µM	80 ± 2	130 to 131 °C
CN(C)CCNc1n[n+]([O-])c2cc3c(cc2[n+]1[O-])OCO3 [Compound 224, N^1-(1,4-Dioxido[1,3]dioxolo[4,5-g][1,2,4]benzotriazin-3-yl)-N^2,N^2-dimethyl-1,2-ethanediamine]	4.7 ± 3.3 µM	304 ± 254 µM	53 ± 17	13 ± 7 µM	471 ± 443 µM	26 ± 21	175 to 179 °C
CN(C)CCNc1n[n+]([O-])c2cc3c(cc2[n+]1[O-])CCC3 [Compound 23, N^1-(1,4-Dioxido-7,8-dihydro-6H-indeno[5,6-e][1,2,4]triazin-3-yl)-N^2,N^2-dimethyl-1,2-ethanediamine]	0.7 ± 0.3 µM	105 ± 21 µM	111 ± 5	2.3 ± 0.6 µM	318 ± 14 µM	152 ± 35	150 to 153 °C
CCCN(CCC)CCNc1n[n+]([O-])c2cc3c(cc2[n+]1[O-])CCC3 [Compound 29, N^1-(1,4-Dioxido-7,8-dihydro-6H-indeno[5,6-e][1,2,4]triazin-3-yl)-N^2,N^2-dipropyl-1,2-ethanediamine]	0.7 µM	63 µM	91	2.5 µM	196 µM	77	142 to 145 °C
CCc1n[n+]([O-])c2cc3c(cc2[n+]1[O-])CC(CN1CCOCC1)C3 (stereo not shown) [Compound 144, 3-Ethyl-7-(4-morpholinylmethyl)-7,8-dihydro-6H-indeno[5,6-e][1,2,4]triazine 1,4-Dioxide]	2.4 ± 0.1 µM	147 ± 37 µM	62 ± 19	4.8 ± 1.3 µM	154 ± 51 µM	31 ± 2	164 to 165 °C
[O-][n+]1nc(CCCO)[n+]([O-])c2cc3c(cc21)CCC3 [Compound 71, 3-(1,4-Dioxido-7,8-dihydro-6H-indeno[5,6-e][1,2,4]triazin-3-yl)-1-propanol]	6.9 ± 3.3 µM	680 ± 95 µM	114 ± 31	15 ± 3 µM	874 ± 119 µM	57 ± 1	153 to 155 °C
[O-][n+]1nc(NCCN2CCCCCC2)[n+]([O-])c2cc3c(cc21)CCC3 [Compound 47, N-[2-(1-Azepanyl)ethyl]-7,8-dihydro-6H-indeno[5,6-e][1,2,4]triazin-3-amine 1,4-Dioxide]	0.71 ± 0.01 µM	67 ± 5 µM	95 ± 6	1.4 ± 0.1 µM	72 ± 2 µM	52 ± 1	181 to 184 °C
CCNc1n[n+]([O-])c2cc3c(cc2[n+]1[O-])CN(C)CC3 [Compound 259, N-Ethyl-7-methyl-6,7,8,9-tetrahydro[1,2,4]triazino[6,5-g]isoquinolin-3-amine 1,4-Dioxide]	1.1 ± 0.5 µM	111 ± 51 µM	100 ± 2	2.6 ± 0.03 µM	154 ± 19 µM	59 ± 7	120 to 124 °C
CC1Cc2cc3c(cc2C1)[n+]([O-])c(CCCN1CCOCC1)n[n+]3[O-] (stereo not shown) [Compound 104, 7-Methyl-3-[3-(4-morpholinyl)propyl]-7,8-dihydro-6H-indeno[5,6-e][1,2,4]triazine 1,4-Dioxide]	1.7 ± 0.2 µM	226 ± 14 µM	134 ± 4	2.9 ± 0.1 µM	210 ± 38 µM	72 ± 13	119 to 121 °C
CCc1n[n+]([O-])c2cc3c(cc2[n+]1[O-])CC(CCO)C3 (stereo not shown) [Compound 162, 2(3-Ethyl-1,4-dioxido-7,8-dihydro-6H-indeno[5,6-e][1,2,4]triazin-7-yl)ethanol]	2.9 ± 0.4 µM	283 µM	86	7.7 ± 1.2 µM	717 ± 320 µM	102 ± 57	152 to 155 °C
CN(C)CCNc1n[n+]([O-])c2c3c(ccc2[n+]1[O-])CCC3 [Compound 7, N^1,N^1-Dimethyl-N^2-(1,4-dioxido-8,9-dihydro-7H-indeno[5,4-e][1,2,4]triazin-3-yl)-1,2-ethanediamine]	1.6 µM	226 ± 46 µM	99	3 µM	255 ± 53 µM	67	153 to 156 °C
[O-][n+]1nc(CCCN2CCOCC2)[n+]([O-])c2cc3c(cc21)CC(CO)C3 (stereo not shown) [Compound 141, {3-[3-(4-Morpholinyl)propyl]-1,4-dioxido-7,8-dihydro-6H-indeno[5,6-e][1,2,4]triazin-7-yl}methanol]	1.8 ± 0.2 µM	377 µM	206	2.4 ± 0.1 µM	294 ± 34 µM	121 ± 14	112 to 114 °C
CCc1n[n+]([O-])c2cc3c(cc2[n+]1[O-])CN(C)CC3 [Compound 261, 3-Ethyl-7-methyl-6,7,8,9-tetrahydro[1,2,4]triazino[6,5-g]isoquinoline 1,4-Dioxide]	3.1 ± 0.1 µM	18 ± 1 µM	6 ± 0.2	13 ± 1 µM	24 ± 2 µM	2 ± 0.2	124 to 128 °C
